The assay relates to Glutamate, NMDA, Phencyclidine Site. Nature of the assay: Glutamate, NMDA, Phencyclidine Site; [3H]TCP. The class given is binding. The conditions noted are these: 10^−5 M.

Take `COC(=O)[C@H]1[C@@H](OC(=O)c2ccccc2)C[C@@H]2CC[C@H]1N2C` [cocaine]: the “Pass 1 (10^−5 M) % Inhibition” value is recorded as 6.63%.
